Test results published in patent US20240091110A1, “Oral Care Compositions and Methods of Use” (Colgate-Palmolive Company, priority 2019, published 2024).

System: mixed species biofilm
Assay: Seahorse XFe Extracellular Flux Analyzer, Mitochondrial Respiration - Oxygen Consumption Rate (OCR) in mixed biofilm assay
Type: cell-based
Procedure: Samples with varying amounts of cannabidiol (CBD) are assessed for their effects on cellular metabolism with and without various source of zinc. Using the Seahorse XF^e Extracellular Flux Analyzer, biofilm samples are grown for 48 hrs. […] The biofilms are harvested for culture. Diluted biofilm and toothpaste slurry are loaded to each well. Glycolysis—Extracellular Acidification Rate (ECAR) and Mitochondrial Respiration—Oxygen Consumption Rate (OCR) is measured for 25-50 cycles (˜360 minutes). The “CBD Oil” is 5% CBD (by wt. of the CBD Oil) in Hemp seed oil.
Where the “OCR” is oxygen consumption rate units as measured using the Seahorse XF^e Extracellular Flux Analyzer: […]

[F][Sn][F] [0.2% by wt. Stannous Fluoride, Stannous Fluoride]
Average (OCR) (Table 3, separate experiment, stannous slurry, untreated 11489.9): 10440.7

CC(O)C(=O)[O-].CC(O)C(=O)[O-].[Zn+2] (centres unmarked) [1.5% Zinc Lactate, Zinc Lactate]
Average (OCR) (Table 1, CBD and zinc lactate, biofilm grown 48 hrs, untreated 25,669.50): 21,900.63
